Series [1] concerns CT26 cells. Nature of the series: Subcutaneous CRC model, CT26 cells in BALB/c mice. The following applies: 50 mg/kg i.p., 3 times per week over 3 weeks; s.c. CT26 tumors in BALB/c mice; compared with ANTARTINA and tricin. Format: in vivo, mouse. The text has this:
FIG. 4 depicts cell size (mm^3) in mice of CT26 tumors after CT26 cell line injection into mice. […] The bottom panel provides a summary of all results in one graph.
Mouse CT26 tumor cell line, an undifferentiated murine colorectal carcinoma (CRC) cell line established from N-nitroso-N-methylurethan-induced transplantable tumor in BALB/c (H-2d) mice, BNL cells (an hepatoma cell line) were used in the studies below and can be obtained from the University of Navarra, Spain. Human cell lines were from American Type Culture Collection (ATCC, Manassas, Va., US), including LoVo (ATCC-CCL229), ASG (ATCC-CCRL-79) and lung fibroblast Wi38 (ATCC-CCL75). All lines were tested for mycoplasma and cultured in complete DMEM (GIBCO, Themo Fisher Scientific, mM glutamine, 100 U/mL penicillin, […] streptomycin, and 10% heat inactivated fetal bovine serum (FBS, GIBCO, Thermo Fisher Scientific) and incubated 37° C. in 5% CO2.
Subcutaneous CRC model: Six-to-eight-week-old male BALB/c mice were used. CT26 cells were injected at a dose of 5×10^5 cells subcutaneously (s.c.) into the right flank of BALB/c mice (day 0). Tumors were allowed to reach ^˜90 mm^3 in size before treatment. […] Tumor growth was assessed by caliper measurement. Tumor volume was calculated using the following formula: tumor volume (mm^3)=length×(width) 2/2.

In another series the test system is Hepa129 cells. Briefly: Orthotopic hepatocellular carcinoma model associated with fibrosis, Hepa129 cells in C3H/He mice. Format: in vivo, mouse. To be noted: 50 mg/kg, 3 times per week from day 5; quantified fifteen days after tumor implantation; vs saline. How it is done:
On day 28, mice were anesthetized and orthotopic tumors were established by sub-capsular inoculation of 1.25×10^5 Hepa129 cells into the left liver lobe by laparotomy (day 0). Five days after tumor implantation, mice were distributed in groups (n=6-8/group) and received: i) saline (control, FIG. 5A, left panel); ii) acetylated ANTARTINA® (50 mg/kg, 3 times per week, FIG. 5A, right panel). Fifteen days after tumor implantation, mice were sacrificed and tumor volume was quantified, as depicted in FIG. 5B (control, left panel; acetylated ANTARTINA®, right panel).
Experimental model of HCC associated with fibrosis: C3H/He mice were treated intraperitoneally (i.p) with 200 mg/kg of thioacetamide (TAA) (Sigma-Aldrich, St. Louis, USA) 3 times a week for 4 weeks. On day 28, mice were anesthetized and orthotopic tumors were established by sub-capsular inoculation of 1.25×10^5 Hepa129 cells into the left liver lobe by laparotomy (day 0). Five days after tumor implantation, mice were distributed in groups (n=6-8/group) and received: i) saline (control); ii) acetylated ANTARTINA® (50 mg/kg, 3 times per week). (See, FIG. 5A). Fifteen days after tumor implantation, mice were sacrificed and tumor volume was quantified. (See, FIG. 5B).

Series [2] relates to CT26 cells. Nature of the series: Murine CRC model (CT26 cells) in BALB/c mice, combination with AdIL-12 gene therapy. Format: in vivo, mouse. The following applies: mice with regression/mice in group; ANTARTINA 50 mg/kg 3 doses per week; AdIL12 10^9 TCID50 intratumorally, one dose at day 15. The source says:
Mouse CT26 cells (5×10^5) were subcutaneously inoculated on day 0. On day 7, when tumors reached a diameter of 5-7 mm, animals were divided into 4 groups: saline, ANTARTINA®, AdIL12, and the combination of ANTARTINA® and AdIL-12. Tumor volume is shown in the left panel vs. days after CT26 inoculation. Excised tumors are depicted in the right panel.
Adenovirus IL-12 constructs are as previously reported. (Mazzolini et al., Cancer Gene Therapy, 6(6):514-522, 1999).
This is a murine model of CRC (CT26 cells) established in BALB/c mice. Mouse CT26 cells (5×10^5) were subcutaneously inoculated on day 0. On day 7, when tumors reached a diameter of 5-7 mm, animals were divided into 4 groups: saline, ANTARTINA® 50 mg/kg, 3 doses per week (systemically), AdIL12 (adenovirus encoding murine IL-12, dose: 10^9 TCID50, intratumorally, one dose at day 15 after tumor inoculation), and the combination of ANTARTINA® and AdIL-12. Tumor volume was measured with a caliper 3 times per week. […] Complete tumor regressions: saline […], AdIL-12 1/5, Antartina 2/5, and combined therapy: 4/5. (FIG. 6).

The test system of a further series is human CRC cell. Briefly: In vitro human CRC cell proliferation. Format: cell-based. The source says: (§1) In colorectal carcinoma (CRC) patients, distant metastatic disease is present at initial diagnosis in nearly 25% of patients. The majority of patients with metastatic CRC have an incurable disease; therefore, new therapies are needed to address this cancer. […] ANTARTINA® is an antitumor agent isolated from Deschampsia antarctica Desv. In that study, the aim was to evaluate the antitumor properties of ANTARTINA® in CRC models. Human and murine CRC cell lines were employed to investigate proliferation, apoptosis, and cell cycle effects of ANTARTINA® therapy in vitro. Immune response of ANTARTINA® against cancer cells in the CRC model was also investigated using a cytotoxic T lymphocyte (CTL) assay, analyzing dendritic cell activation and intratumor T cell sub-population, and by tumor re-challenge experiments.

The test system of series [3] is CRC. Nature of the series: Immunocompetent CRC mouse model. Format: in vivo.
Text: as §1

For series [4], the system named is CRC. Briefly: Cytotoxic T lymphocyte (CTL) assay. Format: cell-based.
Text: as §1

The subject of the next series is dendritic cell. Briefly: Dendritic cell activation. Format: cell-based.
Text: as §1

Entries after “also recorded” stand apart in the source; their conditions may differ.

The melting point is the temperature, or range, at which the solid turns liquid. `COc1cc(-c2cc(=O)c3c(O)cc(O[C@@H]4O[C@H](CO)[C@@H](O[C@@H]5O[C@H](CO)[C@@H](O)[C@H](O)[C@H]5O)[C@H](O)[C@H]4O)cc3o2)cc(OC)c1O` (stereo in doubt) displayed a melting point of 243.2 to 246.5 °C.

Regarding `COc1cc(-c2cc(=O)c3c(O)cc(O[C@@H]4O[C@H](COC(C)=O)[C@H](OC(C)=O)[C@H](OC(C)=O)[C@H]4OC(C)=O)cc3o2)cc(OC)c1O` (stereo in doubt), the melting point fell in the range of 117.2 to 121.8 °C.

`COc1cc(-c2cc(=O)c3c(OC(C)=O)cc(O[C@@H]4O[C@H](COC(C)=O)[C@@H](OC(C)=O)[C@H](OC(C)=O)[C@H]4OC(C)=O)cc3o2)cc(OC)c1OC(C)=O` [acetylated ANTARTINA®, Tricin 7-O-β-D-glucopyranoside, Per Acetylated] returned a melting point of 239.1 to 241.8 °C. For the same compound, the “tumor size (antitumoral effect)” value with CT26 cells [1] was “superior antitumoral effect in comparison with native ANTARTINA®; also recorded: clearly and markedly reduced tumor size at a higher rate than observed for any of the other tested agents”. The tumor volume entry in the series with Hepa129 cells is reported as “markedly reduced the tumor volume”.

For `COc1cc(-c2cc(=O)c3c(O)cc(O[C@@H]4O[C@H](CO)[C@@H](O)[C@H](O)[C@H]4O)cc3o2)cc(OC)c1O` [ANTARTINA®, tricin 7-O-β-D-glucopyranoside], the complete tumor regressions with CT26 cells [2] is 2/5. Further, in the series with human CRC cell, the “in vitro human CRC cell proliferation” value is given as “inhibits”. Further, the toxic effects result in the series on CRC [3] (at the doses employed) is “No toxic effects were observed”. Moreover, in the series on CRC [3] (mouse, in vivo), the animal survival rate entry was “increased”; the complete tumor regressions was > 30 % of mice; the “tumor growth and liver metastases” value is “potently inhibited”; the tumor immunogenicity entry is “increased tumor immunogenicity”. For the same compound, the “antitumor immunity (tumor re-challenge)” value with CRC [3] (tumor re-challenge experiments) is on record as “long lasting antitumor immunity”. Also, in the series on CRC [4], the “specific cytotoxic T cell response against CRC” value is recorded as “induced a potent specific cytotoxic T cell response”. Also, the dendritic cell activation result in the series on dendritic cell was “stimulated dendritic cell activation”.

The compound `COc1cc(-c2cc(=O)c3c(O)cc(O[C@@H]4O[C@H](CO)[C@@H](O[C@@H]5O[C@H](CO)[C@H](O)[C@H](O)[C@H]5O)[C@H](O)[C@H]4O)cc3o2)cc(OC)c1O` (stereo in doubt) came in with a melting point of 275.4 to 279.2 °C.

Turning to `COc1cc(-c2cc(=O)c3c(O)cc(O[C@@H]4O[C@H](CO)[C@H](O)[C@H](O)[C@H]4O)cc3o2)cc(OC)c1O` (stereo in doubt), the melting point was 260.2 to 263.3 °C.

These data come from US11534449B2, “Tricin derivatives and compositions thereof for cancer treatment” (NEOCAGE SL, priority 2019, dated 2022).
